Measurements: ChEMBL document CHEMBL3885861, “Open TG-GATES”

Species: Rattus norvegicus
Assay: Open TG-GATES - Regimen: Daily Repeat
Format: toxicity, organism-based, Sprague-Dawley
Parameters: regimen Daily Repeat, gender Male, age 6 weeks
Details: in vivo, po, route gavage; for Bas / Eos / Fbg / Ht / Lym / MCH / MCHC / MCV / Mono / Neu / PT / Plat / RBC / Ret / WBC / APTT: tissue Blood; for KIDNEY_L / KIDNEY_R / KIDNEY_TOTAL: tissue Kidney; for ALP / ALT / AST / CRE / Ca / Cl / DBIL / GLC / IP / K / LDH / RALB / TBIL / TC / TG / TP / gamma-GTP: tissue Plasma
[1] = 0 mg/kg, 72 h, dose level Control, time 3 day
[2] = 0 mg/kg, […], dose level Control, time 7 day
[3] = 0 mg/kg, […], dose level Control, time 14 day
[4] = 0 mg/kg, […], dose level Control, time 28 day
[5] = 10 mg/kg, 72 h, dose level Low, time 3 day
[6] = 10 mg/kg, […], dose level Low, time 7 day
[7] = 10 mg/kg, […], dose level Low, time 14 day
[8] = 10 mg/kg, […], dose level Low, time 28 day

Structure (SMILES): Cn1c(=O)c2c(ncn2C)n(C)c1=O [CAFFEINE]
- TERMINAL_BW [1]: 229.3 g
- Bas [1]: 0%
- Eos [1]: 0.6%
- Fbg [1]: 311 mg/dL
- Ht [1]: 39.9%
- Lym [1]: 81.2%
- MCH [1]: 21.1 pg
- MCHC [1]: 33.1%
- MCV [1]: 63.7 fL
- Mono [1]: 2%
- Neu [1]: 15.6%
- PT [1]: 15.7 s
- Plat [1]: 113.5 x10_4/uL
- RBC [1]: 627 x10_4/ul
- Ret [1]: 6.4%
- WBC [1]: 79.7 x10_2/uL
- KIDNEY_L [1]: 1 g
- KIDNEY_R [1]: 1 g
- KIDNEY_TOTAL [1]: 2 g
- ALP [1]: 1435.4 IU/L
- ALT [1]: 51.2 IU/L
- AST [1]: 77 IU/L
- CRE [1]: 0.2 mg/dL
- Ca [1]: 10.9 mg/dL
- Cl [1]: 108.2 meq/L
- DBIL [1]: 0 mg/dL
- GLC [1]: 187.2 mg/dL
- IP [1]: 7.9 mg/dL
- K [1]: 4.1 meq/L
- LDH [1]: 159 IU/L
- RALB [1]: 3 g/dL
- TBIL [1]: 0.004 mg/dL
- TC [1]: 69.2 mg/dL
- TG [1]: 83.4 mg/dL
- TP [1]: 5.6 g/dL
- gamma-GTP [1]: 1.4 IU/L
- TERMINAL_BW [2]: 259.6 g
- TERMINAL_BW [3]: 312 g
- TERMINAL_BW [4]: 388.1 g
- APTT [2]: 22.5 s
- Bas [2]: 0%
- Eos [2]: 0.8%
- Fbg [2]: 342.6 mg/dL
- Ht [2]: 40.7%
- Lym [2]: 79%
- MCH [2]: 21.2 pg
- MCHC [2]: 33.6%
- MCV [2]: 63.2 fL
- Mono [2]: 1.8%
- Neu [2]: 17.4%
- PT [2]: 15.4 s
- Plat [2]: 116.2 x10_4/uL
- RBC [2]: 644.8 x10_4/ul
- Ret [2]: 6%
- WBC [2]: 120.4 x10_2/uL
- APTT [3]: 22.6 s
- Bas [3]: 0%
- Eos [3]: 1%
- Fbg [3]: 311.4 mg/dL
- Ht [3]: 41.1%
- Lym [3]: 84.2%
- MCHC [3]: 34.2%
- MCV [3]: 59.8 fL
- Mono [3]: 2.4%
- Neu [3]: 11.4%
- PT [3]: 15.5 s
- Plat [3]: 117.4 x10_4/uL
- RBC [3]: 688 x10_4/ul
- Ret [3]: 4.3%
- WBC [3]: 117.6 x10_2/uL
- Bas [4]: 0%
- Eos [4]: 1.2%
- Fbg [4]: 317 mg/dL
- Ht [4]: 43.6%
- Lym [4]: 81%
- MCH [4]: 19.4 pg
- MCHC [4]: 34.6%
- MCV [4]: 56.1 fL
- Mono [4]: 1.6%
- PT [4]: 15.7 s
- Plat [4]: 102.1 x10_4/uL
- RBC [4]: 778.2 x10_4/ul
- Ret [4]: 2.6%
- WBC [4]: 103.3 x10_2/uL
- KIDNEY_L [2]: 1.1 g
- KIDNEY_R [2]: 1.1 g
- KIDNEY_TOTAL [2]: 2.3 g
- KIDNEY_L [3]: 1.2 g
- KIDNEY_R [3]: 1.2 g
- KIDNEY_TOTAL [3]: 2.4 g
- KIDNEY_L [4]: 1.4 g
- KIDNEY_R [4]: 1.5 g
- KIDNEY_TOTAL [4]: 2.9 g
- ALP [2]: 1993.2 IU/L
- ALT [2]: 46 IU/L
- AST [2]: 70.6 IU/L
- CRE [2]: 0.1 mg/dL
- Ca [2]: 10.5 mg/dL
- Cl [2]: 106 meq/L
- DBIL [2]: 0 mg/dL
- GLC [2]: 197.8 mg/dL
- IP [2]: 7.7 mg/dL
- K [2]: 4.7 meq/L
- LDH [2]: 185.6 IU/L
- RALB [2]: 3 g/dL
- TBIL [2]: 0 mg/dL
- TC [2]: 76.6 mg/dL
- TG [2]: 118.6 mg/dL
- TP [2]: 5.5 g/dL
- gamma-GTP [2]: 1.8 IU/L
- ALP [3]: 1572.4 IU/L
- ALT [3]: 40.8 IU/L
- AST [3]: 68.4 IU/L
- CRE [3]: 0.2 mg/dL
- Ca [3]: 10.5 mg/dL
- Cl [3]: 104.6 meq/L
- DBIL [3]: 0 mg/dL
- GLC [3]: 216 mg/dL
- IP [3]: 7.5 mg/dL
- K [3]: 4.5 meq/L
- LDH [3]: 181 IU/L
- RALB [3]: 3 g/dL
- TBIL [3]: 0 mg/dL
- TG [3]: 150.2 mg/dL
- TP [3]: 5.8 g/dL
- gamma-GTP [3]: 2.4 IU/L
- ALP [4]: 1038 IU/L
- ALT [4]: 43.6 IU/L
- AST [4]: 66.6 IU/L
- CRE [4]: 0.2 mg/dL
- Ca [4]: 10.4 mg/dL
- Cl [4]: 105 meq/L
- DBIL [4]: 0 mg/dL
- GLC [4]: 197.4 mg/dL
- IP [4]: 6.6 mg/dL
- K [4]: 4.1 meq/L
- LDH [4]: 146 IU/L
- RALB [4]: 3.1 g/dL
- TBIL [4]: 0.004 mg/dL
- TC [4]: 71 mg/dL
- TG [4]: 138.8 mg/dL
- TP [4]: 6.1 g/dL
- gamma-GTP [4]: 2.2 IU/L
- TERMINAL_BW [5]: 226.8 g
- APTT [5]: 21.4 s
- Bas [5]: 0%
- Eos [5]: 1%
- Fbg [5]: 307.2 mg/dL
- Ht [5]: 38.9%
- Lym [5]: 80.2%
- MCH [5]: 20.9 pg
- MCHC [5]: 33.2%
- MCV [5]: 62.9 fL
- Mono [5]: 1.8%
- Neu [5]: 16.4%
- PT [5]: 15.5 s
- Plat [5]: 118.8 x10_4/uL
- RBC [5]: 618.6 x10_4/ul
- Ret [5]: 5.7%
- WBC [5]: 73.5 x10_2/uL
- KIDNEY_L [5]: 1 g
- KIDNEY_R [5]: 1 g
- KIDNEY_TOTAL [5]: 2 g
- ALP [5]: 1442.2 IU/L
- ALT [5]: 43.8 IU/L
- AST [5]: 70.8 IU/L
- CRE [5]: 0.2 mg/dL
- Ca [5]: 10.8 mg/dL
- Cl [5]: 107.6 meq/L
- DBIL [5]: 0 mg/dL
- GLC [5]: 183.2 mg/dL
- IP [5]: 7.5 mg/dL
- K [5]: 4.2 meq/L
- LDH [5]: 154.6 IU/L
- RALB [5]: 3 g/dL
- TBIL [5]: 0.004 mg/dL
- TC [5]: 75.8 mg/dL
- TG [5]: 87.8 mg/dL
- TP [5]: 5.6 g/dL
- gamma-GTP [5]: 1.2 IU/L
- TERMINAL_BW [6]: 259.9 g
- TERMINAL_BW [7]: 300.9 g
- TERMINAL_BW [8]: 396.8 g
- APTT [6]: 22.8 s
- Bas [6]: 0%
- Eos [6]: 1%
- Fbg [6]: 316 mg/dL
- Ht [6]: 40.6%
- Lym [6]: 79%
- MCH [6]: 20.9 pg
- MCHC [6]: 33.3%
- MCV [6]: 62.7 fL
- Mono [6]: 2%
- Neu [6]: 16.8%
- PT [6]: 15.3 s
- Plat [6]: 112.2 x10_4/uL
- RBC [6]: 648.4 x10_4/ul
- Ret [6]: 6.1%
- WBC [6]: 106.3 x10_2/uL
- APTT [7]: 23.2 s
- Bas [7]: 0%
- Eos [7]: 0.8%
- Fbg [7]: 306.2 mg/dL
- Ht [7]: 41.1%
- Lym [7]: 81.2%
- MCH [7]: 20.1 pg
- MCHC [7]: 34%
- MCV [7]: 59.2 fL
- Mono [7]: 1.4%
- Neu [7]: 15.4%
- PT [7]: 15.1 s
- Plat [7]: 112.6 x10_4/uL
- RBC [7]: 693.6 x10_4/ul
- Ret [7]: 4.5%
- WBC [7]: 105.4 x10_2/uL
- APTT [8]: 25.8 s
- Bas [8]: 0%
- Eos [8]: 0.6%
- Fbg [8]: 309.2 mg/dL
- Ht [8]: 43.1%
- Lym [8]: 84%
- MCHC [8]: 34.5%
- MCV [8]: 54.7 fL
- Mono [8]: 1.6%
- Plat [8]: 99.3 x10_4/uL
- RBC [8]: 788.8 x10_4/ul
- Ret [8]: 2.5%
- WBC [8]: 105.2 x10_2/uL
- KIDNEY_L [6]: 1.1 g
- KIDNEY_R [6]: 1.1 g
- KIDNEY_TOTAL [6]: 2.2 g
- KIDNEY_L [7]: 1.2 g
- KIDNEY_R [7]: 1.2 g
- KIDNEY_TOTAL [7]: 2.5 g
- KIDNEY_L [8]: 1.5 g
- KIDNEY_R [8]: 1.5 g
- KIDNEY_TOTAL [8]: 3 g
- ALP [6]: 1552.6 IU/L
- ALT [6]: 47.6 IU/L
- AST [6]: 75.2 IU/L
- CRE [6]: 0.2 mg/dL
- Ca [6]: 10.5 mg/dL
- Cl [6]: 106.4 meq/L
- DBIL [6]: 0 mg/dL
- GLC [6]: 192.8 mg/dL
- IP [6]: 7.8 mg/dL
- K [6]: 4.4 meq/L
- LDH [6]: 179.4 IU/L
- RALB [6]: 3 g/dL
- TBIL [6]: 0.002 mg/dL
- TC [6]: 73.4 mg/dL
- TG [6]: 102.4 mg/dL
- TP [6]: 5.5 g/dL
- gamma-GTP [6]: 2.4 IU/L
- ALP [7]: 1475.8 IU/L
- AST [7]: 71.8 IU/L
- CRE [7]: 0.2 mg/dL
- Ca [7]: 10.6 mg/dL
- Cl [7]: 105.8 meq/L
- DBIL [7]: 0 mg/dL
- GLC [7]: 194 mg/dL
- IP [7]: 6.8 mg/dL
- K [7]: 4.2 meq/L
- LDH [7]: 160.2 IU/L
- RALB [7]: 3 g/dL
- TBIL [7]: 0.004 mg/dL
- TC [7]: 68.4 mg/dL
- TG [7]: 146.6 mg/dL
- TP [7]: 5.8 g/dL
- gamma-GTP [7]: 2.2 IU/L
- ALP [8]: 1054 IU/L
- ALT [8]: 43 IU/L
- AST [8]: 66.2 IU/L
- CRE [8]: 0.2 mg/dL
- Ca [8]: 10.4 mg/dL
- Cl [8]: 105.8 meq/L
- DBIL [8]: 0 mg/dL
- GLC [8]: 204.4 mg/dL
- IP [8]: 6.7 mg/dL
- K [8]: 4 meq/L
- LDH [8]: 153 IU/L
- RALB [8]: 3.2 g/dL
- TBIL [8]: 0.004 mg/dL
- TC [8]: 73.6 mg/dL
- TG [8]: 147.6 mg/dL
